PubChem BioAssay (NCI)
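The compound was tested at five concentrations on cells cultured in 96-well plates, with a 48-hour exposure period. Here, GI50 denotes the concentration required for 50% inhibition of growth. TGI is the concentration that stops growth completely.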

Columns and labels:
Assay in all cases: NCI tumour cell line growth inhibition, 48 h
SK-MEL-28 melanoma = test system: SK-MEL-28 melanoma
SNB-75 CNS = test system: SNB-75 CNS
NCI-H522 lung = test system: NCI-H522 lung
HCT-116 colon = test system: HCT-116 colon
EKVX NSCLC = test system: EKVX NSCLC
RPMI-8226 leukemia = test system: RPMI-8226 leukemia
OVCAR-4 ovarian = test system: OVCAR-4 ovarian
A498 renal = test system: A498 renal
PC-3 prostate = test system: PC-3 prostate
DU-145 prostate = test system: DU-145 prostate

Compound | TGI (SK-MEL-28 melanoma) [µM] | TGI (SNB-75 CNS) [µM] | TGI (NCI-H522 lung) [µM] | TGI (HCT-116 colon) [µM] | TGI (EKVX NSCLC) [µM] | TGI (RPMI-8226 leukemia) [µM] | TGI (OVCAR-4 ovarian) [µM] | TGI (A498 renal) [µM] | GI50 (SK-MEL-28 melanoma) [µM] | GI50 (SNB-75 CNS) [µM] | GI50 (NCI-H522 lung) [µM] | GI50 (HCT-116 colon) [µM] | GI50 (EKVX NSCLC) [µM] | GI50 (PC-3 prostate) [µM] | TGI (PC-3 prostate) [µM] | GI50 (DU-145 prostate) [µM] | TGI (DU-145 prostate) [µM] | GI50 (RPMI-8226 leukemia) [µM] | GI50 (OVCAR-4 ovarian) [µM] | GI50 (A498 renal) [µM]
O=C(O)c1cc2c(cn1)[nH]c1ccccc12 | > 100 | > 100 | > 100 | > 100 | > 100 | > 100 | > 100 |  |  |  |  |  |  |  |  |  |  |  |  | 
CC(=O)OCC1OC(n2c(=O)n(-c3ccccc3)c(=O)c3ccccc32)C(OC(C)=O)C(OC(C)=O)C1OC(C)=O (stereo not drawn) | > 100 | > 100 | > 100 | > 100 | > 100 | > 100 | > 100 | > 100 |  |  |  |  |  |  |  |  |  |  |  | 
CCOC(=O)C1C(=O)c2ccccc2CN1Cc1ccccc1 (stereo not drawn) | > 100 | > 100 | > 100 | > 100 | > 100 | > 100 | > 100 |  |  |  |  |  |  |  |  |  |  |  |  | 
CN(C)CCCNC(=O)c1cc(NC(=O)c2cc(NC(=O)c3cc(NC(=O)CCc4c[nH]c5ccccc45)cn3C)cn2C)cn1C | > 100 | > 100 | > 100 | > 100 | > 100 | > 100 | > 100 |  | 2.24 | > 100 | > 100 | > 100 | > 100 | > 100 | > 100 | > 100 | > 100 | > 100 | 88.5 | 
O=C1C(=O)N(c2ccc(Cl)c(Cl)c2)C(=O)C(=O)C1c1nc2ccccc2o1 | > 100 | > 100 | > 100 | > 100 |  | 66.5 | > 100 |  |  |  |  |  |  |  |  |  |  |  |  | 
COc1ccc2ccc([Se]c3ccc4ccc(OC)cc4c3)cc2c1 | > 100 | 76.8 | > 100 | > 100 |  | > 100 | 46.6 | > 100 |  |  |  |  |  |  |  |  |  |  |  | 
COC(=O)Nc1nc2ccccc2c(=O)[nH]1 | > 100 | > 100 | > 100 | > 100 | > 100 |  | > 100 |  |  |  |  |  |  |  | > 100 |  | > 100 |  |  | 
Nc1ccccc1C#C/C=C\C#Cc1ccc(Cl)cc1Cl | > 100 |  | 35.4 | 24.9 | 47.9 | 30.5 | > 100 | 27 | 27 |  | 14.7 | 12 | 18.8 | 9.04 | 42.1 | 13.5 | 37.8 | 0.89 | 28.5 | 12.6
O=C(C(Br)Br)C(Br)C(Br)c1ccccc1 (stereo not drawn) | 22.1 | 53.4 | 3.48 | 3.42 | 43.9 | 4.36 |  | 35 | 6.7 | 19.9 | 1.81 | 1.83 | 14.5 | 3.67 | 15.2 | 11.4 | 23.6 | 1.54 |  | 19.7
Cc1c2cc[nH]c(=O)c2cc2c(=O)c3cnccc3[nH]c12 | > 100 | > 100 | > 100 | > 100 | > 100 | > 100 | > 100 | > 100 |  |  |  |  |  |  |  |  |  |  |  | 
CC(C(=O)Oc1ccc2ccccc2c1-c1c(O)ccc2ccccc12)c1ccccc1 (stereo not drawn) | 29.2 |  |  | 25.6 | 37.3 | 57.6 | 23.5 | 29.4 |  |  |  |  |  |  |  |  |  |  |  | 
COC(=O)C(Nc1ccc(OC)cc1)c1ccccc1 (stereo not drawn) | > 100 |  | > 100 | > 100 | > 100 | > 100 |  |  |  |  |  |  |  |  | > 100 |  | > 100 |  |  | 
CCOC(=O)C(C)c1cc(C2(C)OCCO2)c(C)o1 (stereo not drawn) |  | > 100 |  | > 100 | > 100 | > 100 | > 100 |  |  |  |  |  |  |  |  |  |  |  |  | 
O=C(Nc1ccc(Cl)cc1)c1cc2ccccc2cc1O | > 100 | > 100 | 6.88 | 16.5 | > 100 |  | > 100 | 8.37 | 7.62 | 22.2 | 1.25 | 2.19 | 2.98 | 2.99 | > 100 | 3.18 | > 100 |  | 4.41 | 2.23
COC(=O)c1nc(NC#N)[nH]c(=O)c1C | > 100 | > 95.4 | > 100 | > 100 | > 100 | > 100 | > 100 | > 100 |  |  |  |  |  |  |  |  |  |  |  | 
COc1ccc(-c2nc(-c3ccccc3)c(-c3ccccc3)n2C2CC2)cc1OC1CCCC1 | > 165 | > 165 | > 165 | > 165 |  | > 165 | > 165 | > 165 | > 165 | 48.4 | 62.1 | 14.1 |  | 22.6 | > 165 | 94.5 | > 165 | 48.8 | 97.4 | 9.57
CC(=O)N1c2ccccc2Sc2cc(C(O)(C(F)(F)F)C(F)(F)F)ccc21 | > 10 | > 10 | > 10 | > 10 | > 10 |  | > 10 | > 10 |  |  |  |  |  |  | > 10 |  | > 10 |  |  | 
S=C(N/N=C/c1ccccn1)Nc1ccccn1 | > 100 |  | 0.842 | > 100 |  | > 100 | 62.2 | 33.9 | 2.51 |  | 0.241 | 0.371 |  | 1.46 | > 100 | 2.58 | > 100 | 1.44 | 0.477 | 1.62
O=C(NOCC1CC1)c1ccc(F)c(F)c1Nc1ccc(I)cc1Cl | 0.812 | > 45.2 | 8.51 | 9.06 |  | 9.48 | 17.7 | 0.492 | 0.0526 | 2.15 | 1.94 | 0.641 |  | 3.03 | 16.5 | 4.07 | > 100 | 1.97 | 1.81 | 0.0639
O=C1OC2(c3ccccc3Oc3ccccc32)c2ccccc21 | > 100 | > 100 | > 100 | > 100 | > 100 | > 100 | > 100 | > 100 |  |  |  |  |  |  |  |  |  |  |  | 
